Like-named read-outs stand apart in the source and are kept apart here. Where a SMILES comes first, the peptide text is derived from it. The star is where a group is joined. AMC = Cc1cc(=O)oc2cc(N*)ccc12; Cbz = O=C(OCc1ccccc1)*
Key:
L. braziliensis = system: L. braziliensis; set-up: method as in doi:10.1016/j.ejmcr.2022.100093; details: hamsters; cited from earlier work
[1] = system: L. braziliensis promastigotes and murine macrophages; set-up: method as in PMID 34363115; details: promastigotes pre-treated for 1 h; cited from earlier work
[2] = system: L. braziliensis gp63, membrane-associated form; set-up: method as in PMID 34363115; details: cited from earlier work
[3] = system: L. amazonensis promastigotes and THP-1 human macrophages; test: Promastigotes-macrophage interaction (association index); type: cell-based, Leishmania amazonensis; set-up: key: % infected macrophages × amastigotes per macrophage
Description: The human leukemia monocytic cell line (THP-1) was maintained in 25-cm^2 tissue culture flasks with RPMI 1640 medium (Sigma-Aldrich, St. Louis, MO, USA) supplemented with 10% FBS at 37 °C in an atmosphere containing 5% CO2. To perform interaction experiments, THP-1 cells were seeded in 24-well plates at a density of 2 × 10^5 cells/well and then differentiated into macrophages by treatment with phorbol-12-myristate-13-acetate (PMA; 40 ng/mL) (Sigma-Aldrich) for 48 h. Then, the plates were washed twice with sterile PBS (pH 7.2) to remove PMA and a fresh RPMI 1640 medium was added. At the same time, L. amazonensis promastigotes were treated with the IC50 or 2 × IC50 values of the test compounds for 24 h. After this period, the parasites were allowed to infect the mammalian cells (10 parasites per macrophage) for 24 h at 37 °C and 5% CO2, in the absence or presence of 10 µg soluble gp63. Then, the cultures were washed with PBS to remove non-internalized parasites, fixed with methanol and stained with Giemsa. The percentage of infected macrophages was determined by randomly counting 200 cells on each of triplicate coverslips using a bright-field microscope. The association index was obtained by multiplying the percentage of infected macrophages by the number of amastigotes per macrophage.

[4] = system: cell-associated metallo-type peptidases (gp63); test: gp63 proteolytic activity of cell extracts of treated promastigotes; type: cell-based, Leishmania amazonensis; details: promastigotes treated 24 h, IC50 and 2 × IC50; Z-Phe-Arg-AMC; versus untreated cells
Description: After that, promastigotes were washed and processed to evaluate both gp63 activity and gp63 protein levels.
For gp63 proteolytic activity, initially, whole parasite cellular extracts were obtained by repeated freeze/thawing cycles using 10^6 viable cells in PBS containing 1% CHAPS (3-[(3-cholamidopropyl) dimethylammonium]-1-propanesulfonate), pH 7.0. […] The gp63 proteolytic activity was determined as previously described using the cleavage of the fluorogenic substrate Z-Phe-Arg-AMC.

papain = system: papain; set-up: method as in PMID 8907521; details: cited from earlier work
secreted gp63 [5] = biological target: T1, secreted gp63 (Leishmania amazonensis, UniProt Q27673); test: Detection of gp63 activity using fluorogenic substrate Z-Phe-Arg-AMC (kinetics, classical inhibitors); type: biochemical; set-up: endogenous in cells; host or cells: Leishmania amazonensis promastigotes; 0.22-µm filtered PBS-glucose-conditioned supernatant; details: for effect on hydrolysis of Z-Phe-Arg-AMC by gp63: 1 h, alkaline pH
T1 sequence (Q27673 100-597): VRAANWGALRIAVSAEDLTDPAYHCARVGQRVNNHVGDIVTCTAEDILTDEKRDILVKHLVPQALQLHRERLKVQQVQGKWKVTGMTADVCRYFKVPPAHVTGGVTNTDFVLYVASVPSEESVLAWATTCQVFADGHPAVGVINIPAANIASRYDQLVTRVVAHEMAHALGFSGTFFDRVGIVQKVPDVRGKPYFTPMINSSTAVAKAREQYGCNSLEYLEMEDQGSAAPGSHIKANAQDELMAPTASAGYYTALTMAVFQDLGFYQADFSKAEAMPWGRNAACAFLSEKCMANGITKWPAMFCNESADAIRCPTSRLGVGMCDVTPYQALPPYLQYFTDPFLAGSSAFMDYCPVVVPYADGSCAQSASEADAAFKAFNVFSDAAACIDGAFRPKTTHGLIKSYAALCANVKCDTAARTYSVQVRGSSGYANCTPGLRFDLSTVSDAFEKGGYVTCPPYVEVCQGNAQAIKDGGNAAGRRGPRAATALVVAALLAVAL
Description: The enzymatic activity of secreted gp63 was evaluated by the cleavage of the fluorogenic substrate Z-Phe-Arg-AMC. A 5 mM stock solution of the fluorogenic substrate was prepared in DMSO. The reaction was initiated by adding different substrate concentrations (2.5 µM, 5.0 µM, 10 µM and 20 µM) to gp63 (20 µg protein) in a total volume of 100 µL of 50 mM glycine-NaOH buffer, pH 10.0 [38]. At the same time, the titration of the amount of gp63 was also performed. In this sense, different concentrations of gp63 (ranging from 0.156 to 20 µg) were added to 10 µM Z-Phe-Arg-AMC substrate in a total volume of 100 µL of 50 mM glycine-NaOH buffer, pH 10.0. […] The reaction mixture was incubated at 37 °C for 1 h and the assays were controlled for self-release of the fluorophore in the same time interval. Proteolytic activity was expressed as fluorescence arbitrary units (FAU). Apparent Km and Vmax values were calculated using a computerized non-linear regression from the data obtained from the Michaelis–Menten equation (GraphPad Prism 8).

LasB = biological target: LasB; set-up: method as in PMID 31428062; details: cited from earlier work
[6] = system: L. amazonensis promastigotes; set-up: method as in PMID 36678418; details: 72 h of parasite-drug contact; cited from earlier work
[7] = system: L. amazonensis amastigotes; set-up: method as in PMID 36678418; details: amastigotes in THP-1 macrophages; cited from earlier work
secreted gp63 [8] = biological target: T1, secreted gp63
Description: (§1) L. amazonensis promastigotes (10^9 cells) were resuspended in 2 mL of sterile isotonic PBS supplemented with 2% glucose and incubated for 3 h at both 26 °C (invertebrate host temperature) and 37 °C (mammalian host temperature). After this interval, parasite cells were removed by centrifugation and the supernatant (named PBS-glucose-conditioned supernatant) was passed over a 0.22-μm sterilizing membrane (Millipore, São Paulo, Brazil). The protein concentration was quantified by the method described by Lowry et al. [35], using bovine serum albumin (BSA) as standard.
(§2) To perform this, the reaction mixture containing 10 μg protein, 10 µM substrate and 50 mM glycine-NaOH buffer, pH 10.0, was incubated in the absence or presence of different concentrations of Ag-phendione (ranging from 40 to 0.625 μM) and Cu-phendione (ranging from 1000 to 15.62 μM). Fluorescence was measured using a SpectraMax Gemini XPS fluorescence microplate reader (Molecular Devices, Silicon Valley, CA, USA) at an excitation wavelength of 380 nm and an emission wavelength of 460 nm. […] The inhibitory constant (Ki) value was calculated using a derivation of the Michaelis–Menten equation employing GraphPad Prism 8.

secreted gp63 [9] = biological target: T1, secreted gp63; test: biochemical
Description: as §1, §2

secreted gp63 [10] = biological target: T1, secreted gp63; test: Gelatin-SDS-PAGE zymography of gp63 proteolysis; type: biochemical; set-up: endogenous in cells; host or cells: Leishmania amazonensis promastigotes; 0.22-µm filtered PBS-glucose-conditioned supernatant; details: 10 mM, pH 10.0, 48 h, 37 °C
Description: Proteolytic activity was assayed by SDS-PAGE containing 0.1% gelatin (Sigma-Aldrich, St. Louis, MO, USA) incorporated into the gel as the proteinaceous substrate. Briefly, 10 micrograms of proteins present in the PBS-glucose-conditioned supernatant were added to the SDS-PAGE sample buffer (125 mM Tris, pH 6.8, 4% SDS, 20% glycerol and 0.002% bromophenol blue) and subsequently subjected to electrophoresis, which was processed at 200 V/20 mA, for 2 h at 4 °C. Subsequently, SDS was removed by incubation of the gels with 2.5% Triton X-100 (Sigma-Aldrich, St. Louis, MO, USA) for 1 h at room temperature under constant agitation. The gels were incubated for 48 h at 37 °C in 50 mM glycine-NaOH buffer, pH 10.0, to promote proteolysis in the absence and in the presence of classical proteolytic inhibitors as follows: 10 mM phen, 10 mM phenylmethylsulphonyl fluoride (PMSF; Sigma-Aldrich, St. Louis, MO, USA) and 10 µM trans-epoxysuccinyl L-leucylamido-(4-guanidino) butane (E-64; Sigma-Aldrich, St. Louis, MO, USA). Finally, the gels were stained with 0.2% Coomassie Brilliant Blue R-250 (Sigma-Aldrich, St. Louis, MO, USA) in methanol–acetic acid–water (50:10:40) and destained in a solution containing methanol–acetic acid–water (5:10:85). The molecular masses of the peptidases were estimated by comparison with the mobility of molecular mass standards (Thermo Fisher Scientific, Waltham, MA, USA).

[11] = promastigotes pre-treated 24 h with 2 × IC50 value, in the presence of 10 µg gp63-rich supernatant
[12] = promastigotes pre-treated 24 h with 2 × IC50 value, without gp63-rich supernatant
[13] = promastigotes pre-treated 24 h with IC50 value, in the presence of 10 µg gp63-rich supernatant
[14] = promastigotes pre-treated 24 h with IC50 value, without gp63-rich supernatant

## O=C1C(=O)c2cccnc2-c2ncccc21.O=C1C(=O)c2cccnc2-c2ncccc21.[Ag+].[O-][Cl+3]([O-])([O-])[O-] [Ag-phendione, [Ag(phendione)2]ClO4]
L. braziliensis
  protective action (paw lesion, parasite number in paw and lymph nodes): excellent protective action
[1]
  reduction of the Leishmania-macrophage interaction: approximately 51.4%
[2]; 1 μg/mL
  reduction of proteolytic activity: 68%
[3]; [11]
  association index (AI): 77.3
[3]; [12]
  association index (AI): 48.2
[3]; [13]
  association index (AI): 88.1
[3]; [14]
  association index (AI): 60.6
[4]
  proteolytic capacity of cell-associated metallo-type peptidases reduced to: approximately 55%

## oryzacystatin I1 [OCII, reference compound]
papain
  proteolytic activity of papain restored after electrophoresis: ~100%

## CC(C)C[C@H](NC(=O)[C@H]1O[C@@H]1C(=O)O)C(=O)NCCCCN=C(N)N (relative stereo) [E-64, trans-epoxysuccinyl L-leucylamido-(4-guanidino) butane]
Secreted gp63 [5]; inhibitor at 10 µM
  effect on hydrolysis of Z-Phe-Arg-AMC by gp63: did not significantly change the enzymatic activity

## Cc1cc(=O)oc2cc(NC(=O)C(CCCN=C(N)N)NC(=O)C(Cc3ccccc3)NC(=O)OCc3ccccc3)ccc12 (stereo not drawn) [Z-Phe-Arg-AMC] (Cbz-Phe-Arg-{AMC}; configuration not given here)
Secreted gp63 [5]; cleavage of Z-Phe-Arg-AMC by released gp63, pH 10.0, 37 °C
  Vmax: 0.064 µM/s
Secreted gp63 [5]; cleavage of Z-Phe-Arg-AMC by released gp63, pH 10.0, 37 °C, read-out: apparent Km
  Km: 14.2 µM

## O.O.O.O.O=C1C(=O)c2cccnc2-c2ncccc21.O=C1C(=O)c2cccnc2-c2ncccc21.O=C1C(=O)c2cccnc2-c2ncccc21.[Cu+2].[O-][Cl+3]([O-])([O-])[O-].[O-][Cl+3]([O-])([O-])[O-] [Cu-phendione, [Cu(phendione)3](ClO4)2.4H2O]
LasB
  Ki: 0.09 µM
L. braziliensis
  protective action (paw lesion, parasite number in paw and lymph nodes): excellent protective action
[1]
  reduction of the Leishmania-macrophage interaction: 44.4%
[6]
  IC50: 0.0075 µM
[2]; 0.1 μg/mL
  reduction of proteolytic activity: 65%
[2]; 1 μg/mL
  reduction of proteolytic activity: 80%
[3]; [11]
  association index (AI): 64.6
[3]; [12]
  association index (AI): 54.8
[3]; [13]
  association index (AI): 76.5
[3]; [14]
  association index (AI): 63.1
[4]
  proteolytic capacity of cell-associated metallo-type peptidases reduced to: approximately 48%
[7]
  IC50: 0.035 µM
Secreted gp63 [8]; secreted gp63 10 µg, 10 µM Z-Phe-Arg-AMC, glycine-NaOH pH 10.0, 37 °C, 1 h
  IC50: 163 µM
Secreted gp63 [8]; secreted gp63, Z-Phe-Arg-AMC, glycine-NaOH pH 10.0
  Ki: 27.1 µM

## O=C1C(=O)c2cccnc2-c2ncccc21 [Phendione, 1,10-Phenanthroline-5,6-dione]
LasB
  Ki: 0.38 µM
[2]; 1 μg/mL
  reduction of proteolytic activity: 67%
Secreted gp63 [9]
  IC50: 1490 µM
  Ki: 745 µM

## c1cnc2c(c1)ccc1cccnc12 [Phen, 1,10-phenanthroline]
Secreted gp63 [5]; inhibitor at 10 mM
  effect on hydrolysis of Z-Phe-Arg-AMC by gp63: strong inhibition of the proteolytic activity
Secreted gp63 [10]
  effect on proteolytic bands around 66 kDa: inhibited

## O=S(=O)(F)Cc1ccccc1 [PMSF, phenylmethylsulphonyl fluoride]
Secreted gp63 [5]; inhibitor at 10 mM
  effect on hydrolysis of Z-Phe-Arg-AMC by gp63: did not significantly change the enzymatic activity

B1: oryzacystatin I (protein, UniProt P09229 27-140, looked up)
Cysteine proteinase inhibitor …: EAHRAGGEGEEKMSSDGGPVLGGVEPVGNENDLHLVDLARFAVTEHNKKANSLLEFEKLVSVKQQVVAGTLYYFTIEVKEGDAKKLYEAKVWEKPWMDFKELQEFKPVDASANA
papain
  inhibition of enzymatic activity of papain by the complex after electrophoresis: about 80%
